Experimental data reported in patent US7531545B2, “2-amino-3,4-dihydro-pyrido[3,4-d]pyrimidine derivatives useful as inhibitors of β-secretase (BACE)” (Janssen Pharmaceutica, N.V., priority 2005, dated 2009).
Values joined by “and” are separate entries in the source; they are usually repeats but may differ in a detail not shown here. Equal values may be shown once. Where a name gives a salt, the structure may show the parent alone.

Molecular target: human BACE-1 (Homo sapiens, UniProt P56817)
Test: CEREP BACE Inhibition Assay
Assay type: biochemical
Settings: recombinant enzyme; for % Inhibition @ 1.0 μM / inhibition at 1 µM / inhibition at 0.3 µM: percent inhibition of the control activity; for inhibition at 1 µM: read-out: % Inhibition @ 1.0 μM; for IC50: read-out: IC50
Description: More specifically the assay, run at 50 μL in a 96 well plate, evaluated the effect of test compound on the activity of the human BACE-1 quantified by measuring the formation of Mca-S-E-V-N-L-NH2 from […], using a recombinant enzyme. The test compound, reference compound or water (control) were added to a buffer containing 0.09 M sodium acetate (pH 4.5) and 0.25 μg BACE-1. Compound interference with the fluorimetric detection method due to autofluorescence was then checked by measurements at the wavelengths defined to evaluate the enzyme activity. […] For control basal measurement, the substrate was omitted from the reaction mixture. […] The standard inhibitory reference compound was OM99-2, which was tested in each experiment at several concentrations to obtain an inhibition curve from which its IC50 value was calculated.

Chain of human BACE-1 (P56817 46-501): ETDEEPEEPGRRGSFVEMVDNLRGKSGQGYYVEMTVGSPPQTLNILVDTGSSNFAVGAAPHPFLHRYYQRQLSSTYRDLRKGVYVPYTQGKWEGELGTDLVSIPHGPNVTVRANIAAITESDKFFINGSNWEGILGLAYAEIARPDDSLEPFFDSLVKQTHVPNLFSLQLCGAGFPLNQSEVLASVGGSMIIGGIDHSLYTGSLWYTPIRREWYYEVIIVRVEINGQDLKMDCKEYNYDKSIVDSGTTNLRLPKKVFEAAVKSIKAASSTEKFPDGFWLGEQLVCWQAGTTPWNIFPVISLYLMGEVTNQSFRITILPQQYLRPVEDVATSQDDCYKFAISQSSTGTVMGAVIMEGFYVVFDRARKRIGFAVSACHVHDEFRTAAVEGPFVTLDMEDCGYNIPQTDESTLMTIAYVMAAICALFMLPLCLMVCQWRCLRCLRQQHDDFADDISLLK

| SMILES | % Inhibition @ 1.0 μM | inhibition at 1 µM | IC50 | inhibition at 0.3 µM | % Inhibition @ 1.0 μM (hydrochloride salt) |
| --- | --- | --- | --- | --- | --- |
| CC(C)(C)CCNCC[C@@H](C1CCCCC1)N1Cc2cc(Oc3ccccc3)ncc2N=C1N [Compound 216] | 95% | 96% | 87 nM and 120 nM |  |  |
| CC(C)(C)OC(=O)CC[C@@H](C1CCCCC1)N1Cc2cc(Oc3ccccc3)ncc2N=C1N [Compound 75] |  | 90% | 240 nM |  |  |
| CC(C)(C)CCN(CCNS(N)(=O)=O)C(=O)CC[C@@H](C1CCCCC1)N1Cc2cc(Oc3ccccc3)ncc2N=C1N [Compound 147, 4-(2-Amino-6-phenoxy-4H-pyrido[3,4-d]pyrimidin-3-yl)-4-(S)-cyclohexyl-N-(3,3-dimethyl-butyl)-N-(2-sulfamido-ethyl)-butyramide] |  | 100% | 180 nM |  |  |
| CC(C)(C)OC[C@H](CN)NCCC[C@@H](C1CCCCC1)N1Cc2cc(Oc3ccccc3)ncc2N=C1N [Compound 167, N^2-[4-(2-Amino-6-phenoxy-4H-pyrido[3,4-d]pyrimidin-3-yl)-4-cyclohexyl-butyl]-3-tert-butoxy-propane-1,2-diamine] |  | 82% | 520 nM |  |  |
| NC1=Nc2cnc(Oc3ccccc3)cc2CN1[C@@H](CN1C(=O)NC2(CCCCC2)C1=O)C1CCCCC1 [Compound 229, 3-[2-(2-Amino-6-phenoxy-4H-pyrido[3,4-d]pyrimidin-3-yl)-2-(R)-cyclohexyl-ethyl]-1,3-diaza-spiro[4.5]decane-2,4-dione] |  | 78% | 390 nM |  |  |
| CC(C)(C)CCN(CCNC(=O)OC(C)(C)C)C(=O)CC[C@@H](C1CCCCC1)N1Cc2cc(Oc3ccccc3)ncc2N=C1N [Compound 145] |  | 99% | 57 nM |  |  |
| CN(C(=O)CC[C@@H](C1CCOCC1)N1Cc2cc(Oc3ccccc3)ncc2N=C1N)[C@H](COC(C)(C)C)C(=O)O [Compound 60] |  |  | 100 nM | 91% |  |
| NC1=Nc2cnc(Oc3ccccc3)cc2CN1[C@@H](CCC(=O)N1CCCC[C@H]1C(=O)O)C1CCCCC1 [Compound 91] |  |  | 340 nM | 70% |  |
| Cn1c(CN(CCC(C)(C)C)C(=O)CC[C@@H](C2CCCCC2)N2Cc3cc(Oc4ccccc4)ncc3N=C2N)nc(Cl)c1Cl [Compound 172] |  | 99% | 170 nM |  |  |
| CC(C)[C@H](CCC(=O)N[C@@H](COC(C)(C)C)C(=O)O)N1Cc2cc(Oc3ccccc3)ncc2N=C1N [Compound 70] |  |  | 260 nM | 66% |  |
| CC(C)(C)CCNC(=O)C[C@@H](C1CCCCC1)N1Cc2cc(Oc3ccccc3)ncc2N=C1N [Compound 202, 3-(2-Amino-6-phenoxy-4H-pyrido[3,4-d]pyrimidin-3-yl)-3(S)-cyclohexyl-N-(3,3-dimethyl-butyl)-propionamide hydrochloride salt] |  | 88% | 220 nM |  | 73% |
| CN(CCC[C@@H](C1CCCCC1)N1Cc2cc(Oc3ccccc3)ncc2N=C1N)C1CCCCC1 [Compound 187] |  | 99% | 44 nM |  |  |
| CC(C)CN(C)CCC[C@@H](C1CCCCC1)N1Cc2cc(Oc3ccccc3)ncc2N=C1N [Compound 209] |  | 93% | 120 nM |  |  |
| CC(C)(C)CCN(CCN)C(=O)CC[C@@H](C1CCCCC1)N1Cc2cc(Oc3ccccc3)ncc2N=C1N [Compound 146] |  | 100% | 72 nM |  |  |
| CC(C)(C)N(CCO)C(=O)CC[C@@H](C1CCCCC1)N1Cc2cc(Oc3ccccc3)ncc2N=C1N [Compound 115] |  | 80% | 230 nM |  |  |
| CN(CCc1ccccc1)C(=O)CC[C@@H](C1CCCCC1)N1Cc2cc(Oc3ccccc3)ncc2N=C1N [Compound 122, 4-(2-Amino-6-phenoxy-4H-pyrido[3,4-d]pyrimidin-3-yl)-4-(S)-cyclohexyl-N-methyl-N-phenethyl-butyramide] |  | 97% |  |  |  |

| SMILES | % Inhibition @ 1.0 μM | inhibition at 1 µM | IC50 | inhibition at 0.3 µM | % Inhibition @ 1.0 μM (hydrochloride salt) |
| --- | --- | --- | --- | --- | --- |
| NC1=Nc2cnc(Oc3ccccc3)cc2CN1[C@@H](CN1CC2(CCCCC2)NC1=O)C1CCCCC1 [Compound 135, 3-[2-(2-Amino-6-phenoxy-4H-pyrido[3,4-d]pyrimidin-3-yl)-2-(R)-cyclohexyl-ethyl]-1,3-diaza-spiro[4.5]decan-2-one] |  | 52% | 200 nM |  |  |
| C[C@H](CO)N(C)C(=O)CC[C@@H](C1CCCCC1)N1Cc2cc(Oc3ccccc3)ncc2N=C1N [Compound 183] |  | 70% | 580 nM |  |  |
| NC1=Nc2cnc(Oc3ccccc3)cc2CN1[C@@H](CCC(=O)N(CCO)Cc1cccs1)C1CCCCC1 [Compound 141] |  | 98% | 120 nM |  |  |
| CC(C)(C)CCN(CCC[C@@H](C1CCCCC1)N1Cc2cc(Oc3ccccc3)ncc2N=C1N)CCN1CCOCC1 [Compound 182] |  | 100% | 89 nM |  |  |
| CC(C)[C@H](CCC(=O)N(CC(=O)O)C1CCCCC1)N1Cc2cc(Oc3ccccc3)ncc2N=C1N [Compound 86] |  |  | 120 nM | 99% |  |
| NC1=Nc2cnc(Oc3ccccc3)cc2CN1[C@@H](CCC(=O)NCCN1CCOCC1)C1CCCCC1 [Compound 116] |  | 54% | 630 nM |  |  |
| CC(C)[C@H](CCC(=O)N[C@@H](COC(C)(C)C)c1nnnn1Cc1ccccc1)N1Cc2cc(Oc3ccccc3)ncc2N=C1N [Compound 95] |  |  | 210 nM | 86% |  |
| NC1=Nc2cnc(Oc3ccccc3)cc2CN1[C@@H](CCC(=O)N1CCC(c2ccccc2)CC1)C1CCCCC1 [Compound 149] |  | 66% | 740 nM |  |  |
| NC1=Nc2cnc(Oc3ccccc3)cc2CN1[C@@H](CCC(=O)N1CCC[C@@H]1CO)C1CCCCC1 [Compound 144] |  | 81% | 820 nM |  |  |
| COCC(=O)NC1=Nc2cnc(Oc3ccccc3)cc2CN1C(Cn1cc(C(C)(C)C)nn1)C1CCCCC1 (stereo in doubt) [Compound 247, N-{3-[2-(4-tert-Butyl-[1,2,3]triazol-1-yl)-1-(S)-cyclohexyl-ethyl]-6-phenoxy-3,4-dihydro-pyrido[3,4-d]pyrimidin-2-yl}-2-methoxy-acetamide] |  | 3% |  |  |  |
| CC(C)[C@H](CCC(=O)N[C@H](COC(C)(C)C)C(=O)N1CCCCC1)N1Cc2cc(Oc3ccccc3)ncc2N=C1N [Compound 98] |  |  | 150 nM | 72% |  |
| C[C@@H](CO)NC(=O)[C@@H](COC(C)(C)C)NC(=O)CC[C@@H](C1CCCCC1)N1Cc2cc(Oc3ccccc3)ncc2N=C1N [Compound 108] |  |  | 140 nM | 94% |  |
| CC(C)CN(CCC[C@@H](C1CCCCC1)N1Cc2cc(Oc3ccccc3)ncc2N=C1N)CCN1CCOCC1 [Compound 192] |  | 101% | 73 nM |  |  |
| CC(C)(C)c1cn(C[C@@H](C2CCCCC2)N2Cc3cc(Oc4ccccc4)ncc3N=C2N)nn1 [Compound 152, 3-[2-(4-tert-Butyl-[1,2,3]triazol-1-yl)-1-(R)-cyclohexyl-ethyl]-6-phenoxy-3,4-dihydro-pyrido[3,4-d]pyrimidin-2-ylamine] |  | 99% | 88 nM |  |  |
| CC(C)(C)OC[C@H](CO)NC(=O)CC[C@@H](C1CCCCC1)N1Cc2cc(Oc3ccccc3)ccc2N=C1N [Compound 107, 4-(2-Amino-6-phenoxy-4H-quinazolin-3-yl)-N-(1-(S)-tert-butoxymethyl-2-hydroxy-ethyl)-4-(S)-cyclohexyl-butyramide] |  |  |  | 87% |  |
| COCCN(CCOC)C(=O)CC[C@@H](C1CCCCC1)N1Cc2cc(Oc3ccccc3)ncc2N=C1N [Compound 142] |  | 90% | 200 nM |  |  |
